# Values of other authors as cited in patent US9636305B2, “Antiemetic extended release solid dosage forms” (RedHill Biopharma Ltd., priority 2013, dated 2017).
# Conditions: scale of Pliska et al., J. Chromatog. 216, 79, 1981
row,hydropathy value,SMILES
1,0,NCC(=O)O [glycine]
2,1.83,CC[C@H](C)[C@H](N)C(=O)O [iso-leucine]
3,−2.15,N[C@@H](CC(=O)O)C(=O)O [aspartic acid]
